Patent US8999998B2, “Pyrazolopyrimidine JAK inhibitor compounds and methods” (Genentech, Inc., priority 2009, dated 2015)

Legend:
Assay type in all cases: biochemical
[1] = molecular target: JAK1 kinase domain (Homo sapiens (Human), UniProt P23458); assay: JAK1 inhibition assay (Caliper LabChip, isolated kinase domain); details: 25 uM ATP, 1.5 nM JAK1; read-out: JAK1 enzymatic activity (Ki)
Source text: (§1) The catalytically active kinase domain of human JAK1, JAK2, JAK3 or TYK2 was purified from extracts of SF9 insect cells infected with a recombinant baculovirus expression vector encoding the human JAK1, JAK2, JAK3 or TYK2 kinase domains (JAK1 amino acid residues N852-D1154 according to the numbering of GenBank sequence accession number P23458, JAK2 amino acid residues D812-G1132 according to the numbering of GenBank sequence accession number NP_004963.1; JAK3 amino acid residues S783-S1124 according to the numbering of GenBank sequence accession number P52333, and TYK2 amino acid residues N873-C1187 according to the numbering of GenBank sequence accession number P29597). The activity of the JAK1, JAK2, JAK3 or TYK2 kinase domains can be measured by a number of direct and indirect methods, including quantification of phosphorylation of peptide substrates derived from the human JAK3 protein (Saltzman et al., Biochem. Biophys. Res. Commun. 246:627-633 (2004)). The activity of the JAK1, JAK2, JAK3 or TYK2 kinase domains was measured in vitro by monitoring phosphorylation of JAK3 derived peptides using the Caliper LabChip technology (see Examples).
(§2) The activity of the isolated JAK1, JAK2 or TYK2 kinase domain was measured by monitoring phosphorylation of a peptide derived from JAK3 ([…] fluorescently labeled on the N-terminus with 5-carboxyfluorescein using the Caliper LabChip technology (Caliper Life Sciences, Hopkinton, Mass.). […] Reactions were incubated at 22° C. in 384-well polypropylene microtiter plates for 30 minutes and then stopped by addition of 25 uL of an EDTA containing solution (100 mM Hepes pH 7.2, 0.015% Brij-35, 150 mM EDTA), resulting in a final EDTA concentration of 50 mM. After termination of the kinase reaction, the proportion of phosphorylated product was determined as a fraction of total peptide substrate using the Caliper LabChip 3000 according to the manufacturer's specifications. Ki values were then determined using the Morrison tight binding model. Morrison, J. F., Biochim. Biophys. Acta. 185:269-296 (1969); William, J. W. and Morrison, J. F., Meth. Enzymol., 63:437-467 (1979).

[2] = molecular target: JAK2 kinase domain (Homo sapiens (Human), UniProt O60674); assay: JAK2 inhibition assay (Caliper LabChip, isolated kinase domain); details: 25 uM ATP, 0.2 nM JAK2; read-out: JAK2 enzymatic activity (Ki)
Chain of JAK2 kinase domain (O60674 812-1132): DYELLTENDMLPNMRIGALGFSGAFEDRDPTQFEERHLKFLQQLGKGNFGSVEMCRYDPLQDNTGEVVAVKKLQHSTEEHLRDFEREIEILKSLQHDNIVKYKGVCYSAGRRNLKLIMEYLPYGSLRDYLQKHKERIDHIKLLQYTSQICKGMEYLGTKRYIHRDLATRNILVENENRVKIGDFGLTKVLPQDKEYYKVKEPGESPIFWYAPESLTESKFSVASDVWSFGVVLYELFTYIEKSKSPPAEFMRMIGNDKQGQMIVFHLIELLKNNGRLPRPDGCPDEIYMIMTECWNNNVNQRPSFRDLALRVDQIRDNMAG
Source text: as §1, §2

[3] = molecular target: TYK2 kinase domain (Homo sapiens (Human), UniProt P29597); assay: TYK2 inhibition assay (Caliper LabChip, isolated kinase domain); details: 25 uM ATP, 1 nM TYK2; read-out: TYK2 enzymatic activity (Ki)
Chain of TYK2 kinase domain (P29597 873-1187): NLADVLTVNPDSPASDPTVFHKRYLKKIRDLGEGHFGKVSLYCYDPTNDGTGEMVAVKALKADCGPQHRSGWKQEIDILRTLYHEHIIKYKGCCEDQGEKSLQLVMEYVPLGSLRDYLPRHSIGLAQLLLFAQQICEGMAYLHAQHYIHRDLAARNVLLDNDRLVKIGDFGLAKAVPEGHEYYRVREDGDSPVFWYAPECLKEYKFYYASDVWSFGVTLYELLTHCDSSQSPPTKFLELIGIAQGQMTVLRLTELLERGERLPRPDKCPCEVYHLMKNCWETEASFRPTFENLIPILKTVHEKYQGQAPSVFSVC
Source text: as §1, §2

[4] = molecular target: JAK3 kinase domain (Homo sapiens (Human), UniProt P52333); assay: JAK3 inhibition assay (Caliper LabChip, isolated kinase domain); details: 5 uM ATP, 5 nM JAK3; read-out: JAK3 enzymatic activity (Ki)
Chain of JAK3 kinase domain (P52333 783-1124): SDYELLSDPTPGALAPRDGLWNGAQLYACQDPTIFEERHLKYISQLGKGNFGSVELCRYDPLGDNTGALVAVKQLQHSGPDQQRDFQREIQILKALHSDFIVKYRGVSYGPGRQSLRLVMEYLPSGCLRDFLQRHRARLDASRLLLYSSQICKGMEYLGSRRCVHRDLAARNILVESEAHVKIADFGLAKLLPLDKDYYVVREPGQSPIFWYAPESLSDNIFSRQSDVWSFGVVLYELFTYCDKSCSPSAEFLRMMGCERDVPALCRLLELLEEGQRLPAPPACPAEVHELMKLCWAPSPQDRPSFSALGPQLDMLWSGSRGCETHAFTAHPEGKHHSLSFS
Source text: as §1, with “Previous studies have shown that the isolated kinase domains of human JAK1, JAK2, JAK3 or TYK2 phosphorylate peptide substrates in in vitro kinase assays (Saltzman et al., Biochem. Biophys. Res. Commun. 246:627-633 (2004)). The catalytically” for “The catalytically”
as §2, with “JAK3” for “JAK1, JAK2 or TYK2”

Chain of JAK1 kinase domain (P23458 852-1154): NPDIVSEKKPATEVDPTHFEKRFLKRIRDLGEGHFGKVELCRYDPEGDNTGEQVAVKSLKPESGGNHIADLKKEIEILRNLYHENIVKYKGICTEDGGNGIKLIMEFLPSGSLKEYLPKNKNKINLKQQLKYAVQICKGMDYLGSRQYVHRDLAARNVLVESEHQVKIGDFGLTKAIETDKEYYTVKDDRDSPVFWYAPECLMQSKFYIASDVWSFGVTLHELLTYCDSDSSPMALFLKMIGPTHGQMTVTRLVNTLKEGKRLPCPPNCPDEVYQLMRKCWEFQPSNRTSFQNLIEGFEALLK

Ki [1] [nM] | Ki [2] [nM] | Ki [3] [nM] | Ki [4] [nM] | SMILES
2.3 | 6.2 | 47 | 710 | COc1ccc(F)cc1-c1nn(CC2(O)CCOCC2)cc1NC(=O)c1cnn2cccnc12 [Example 364, N-(3-(5-fluoro-2-methoxyphenyl)-1-((4-hydroxytetrahydro-2H-pyran-4-yl)methyl)-1H-pyrazol-4-yl)pyrazolo[1,5-a]pyrimidine-3-carboxamide]
85.9 | 26.3 | 410 | 240 | CC1CCCCN1c1nn(CC(C)(C)O)cc1NC(=O)c1cnn2cccnc12 (centres unmarked) [Example 379, N-(1-(2-hydroxy-2-methylpropyl)-3-(2-methylpiperidin-1-yl)-1H-pyrazol-4-yl)pyrazolo[1,5-a]pyrimidine-3-carboxamide]
176 | 31.3 | 230 | 390 | N#CC1CCN(c2n[nH]cc2NC(=O)c2cnn3cccnc23)CC1 [Example 395, N-(3-(4-cyanopiperidin-1-yl)-1H-pyrazol-4-yl)pyrazolo[1,5-a]pyrimidine-3-carboxamide]
1.5 | 5.7 | 31 | 570 | COc1ccc(Cl)cc1-c1nn(CC(O)(C(F)(F)F)C(F)(F)F)cc1NC(=O)c1cnn2cccnc12 [Example 432, N-(3-(5-chloro-2-methoxyphenyl)-1-(3,3,3-trifluoro-2-hydroxy-2-(trifluoromethyl)propyl)-1H-pyrazol-4-yl)pyrazolo[1,5-a]pyrimidine-3-carboxamide]
1.6 | 5.8 | 14 | 780 | COc1ncc(Cl)cc1-c1nn(CC(=O)N(C)C)cc1NC(=O)c1cnn2cccnc12 [Example 499, N-(3-(5-chloro-2-methoxypyridin-3-yl)-1-(2-(dimethylamino)-2-oxoethyl)-1H-pyrazol-4-yl)pyrazolo[1,5-a]pyrimidine-3-carboxamide]
